Measured values: patent US7947312B2, “Method of preparation and composition of a water soluble extract of the bioactive component of the plant species Uncaria for enhancing immune, anti-inflammatory, anti-tumor and DNA repair processes of warm blooded animals” (priority 2002, dated 2011)

Columns and labels:
IκBα = experiment: Western blotting of IκBα and phosphorylated IκBα in LPS-stimulated 70Z/3 cells; assay type: cell-based, mouse; conditions: QA 2 mg/ml or PDTC 100 μM
Description: FIGS. 5C and 5D illustrate 70Z/3 cells (5×10^6) that were pre-treated with QA (2 mg/ml) or with PDTC (100 μM) as a positive control for two hours and thereafter stimulated with LPS (25 μg/ml) for the indicated time. Cytoplasmic extracts equalized for protein concentration were analyzed by western blotting using IκBα-specific antibodies. One representative experiment out of three (FIG. 5C) and one representative experiment out of two (FIG. 5D) are presented.
Preparation of cell extracts: The 70Z/3 cells were pretreated with QA (1 or 2 mg/ml) or with PDTC for 2 hours before they were stimulated with LPS for various time points. Whole cell extracts from the 70Z/3 cells (1×10^6) were prepared for analysis of the NF-κB signaling pathway. The cells were washed twice in PBS, resuspended in lysis buffer (75 mM Tris-HCl (pH 8.0), 100 mM NaCl, 5 mM KCl, 3 mM MgCl2, 2% NP-40, 1 mM PMSF and a protease inhibitor cocktail) (Roche Diagnostics Scandinavia AB) and incubated on ice for 10 min. The cell debris was pelleted and the supernatants were stored at −70° C. until Western Blot was performed.
Western blotting: Cellular extracts from 70Z/3 cells were separated on a 10% SDS polyacrylamide gel and the proteins were transferred to a nylon membrane. After blocking overnight in 5% dry fat-free milk in TBST, the membrane was incubated for 2 hrs with primary antibodies specific either to IκBα or to phosphorylated IκBα (both from Cell Signaling Technology Inc, Beverly, Mass.). The membranes were thereafter washed three times in TBST, and incubated with HRP-conjugated goat anti-rabbit antibodies (Amersham Pharmacia). The membranes were washed three times and chemoluminescence was detected using the ECL-reagent (Amersham Pharmacia) and x-ray film (CEA AB, Strängnäs, Sweden).

C57BL/6 mice = experiment: Mice treated via drinking water for 21 days: spleen cells, blood cells, weights; assay type: in vivo, mouse
Description: Mice were treated with indicated concentrations of QA or C-MED-100® in the drinking water for 21 days, sacrificed and absolute number of spleen cells counted using trypan blue exclusion. The presented data are mean cell numbers±S.D. pooled from five experiments (water, n=21; C-MED-100® 4 mg/ml, n=24; C-MED-100® 8 mg/ml, n=9; QA 1 mg/ml, n=9; QA 2 mg/ml, n=22; QA 4 mg/ml, n=10). Statistically significant differences compared to control mice supplemented with tap water are indicated. […] The data are presented as the mean number of cells/ml±S.D. from five experiments (water, n=21; C-MED-100® 4 mg/ml, n=24; C-MED-100® 8 mg/ml, n=9; QA 1 mg/ml, n=9; QA 2 mg/ml, n=22; QA 4 mg/ml, n=10). Statistically significant differences compared to control mice supplemented with tap water are indicated. Materials and Methods: C57BL/6 females were bought from […], Denmark and used in experiments at an age of 6-10 weeks. The animals were kept in a SPF facility at Lund University, Lund, Sweden. The use of laboratory animals complies with the guidelines of the European Community and was approved of by the local ethical committee. In vivo treatment: Mice were fed with C-MED-100® and QA (Sigma-Aldrich), dissolved in autoclaved tap water at indicated concentrations, for 21 days. The drinking water bottles were changed every third day. The animals were then sacrificed, the spleens removed and blood samples collected. The blood samples were analyzed in a Sysmex KX-21N cytometer (Sysmex Corporation, Kobe, Japan).

## O=C(O)C1(O)CC(O)C(O)C(O)C1 (stereo not shown) [QA, 1,3,4,5-tetrahydroxy-cyclohexanecarboxylic acid]
IκBα
  phosphorylation of IκBα: did not affect the phosphorylation of IκBα
IκBα; 2 h pretreatment
  LPS-induced breakdown of IκBα: inhibited the LPS-induced breakdown of IκBα
C57BL/6 mice; 2 mg/ml in drinking water, 21 days
  number of spleen cells: significantly increased number of spleen cells
C57BL/6 mice; 4 mg/ml in drinking water
  body weight: significantly reduced
C57BL/6 mice; 4 mg/ml in drinking water, vs normal control animals
  WBC and blood lymphocytes in peripheral blood: this increase was significant
C57BL/6 mice; drinking water 21 days (FIG. 6B)
  absolute numbers of lymphocyte subsets CD4+ T cells, CD8+ T cells and B cells in spleen: this was also the case
C57BL/6 mice; drinking water 21 days, indicated concentrations
  WBC, blood lymphocytes, RBC in peripheral blood: increasing number of WBC and blood lymphocytes
